pIC50: −log10 of the molar value. Where two headings read alike, the source gives them in different places.
Columns and labels:
HeLa cells = assay: Enhancement Ratio: cell growth inhibition (SRB assay) after 2 Gy irradiation; format: cell-based; conditions: inhibitor 25 μM
Procedure: DNA-PK inhibitors were used at a fixed concentration of 25 micromolar. Radiation was delivered by a Faxitron 43855D X-ray system at a dose rate of 1Gy per minute The Enhancement ratio at 2 Gy irradiation was calculated from the formula: [formula] Cell growth was assessed using the sulforhodamine B (SRB) assay (Skehan, P., Storung, R., Scudiero, R., Monks, […]., Kenny, S. and Boyd, M. R. (1990) New calorimetric cytotoxicity assay for anticancer-drug screening. J. Natl. Cancer Inst. 82:1107-1112). 400 HeLa cells were seeded into each well of a flat-bottomed 48-well microtiter plate in a volume of 200 μl and incubated for 6 h at 37° C. […] Cells were allowed to grow for a further 1 h before irradiation or mock irradiation. Cells untreated with DNA-PK inhibitor or unirradiated were used as a control. Cells treated with DNA-PK inhibitor alone were used to assess the growth inhibition by the DNA-PK inhibitor. Cells were left for a further 16 h before replacing the media and allowing the cells to grow for a further 6 days at 37° C. The media was then removed and the cells fixed with 200 μl of ice cold 10% (w/v) trichloroacetic acid. The plates were incubated at 4° C. for 20 minutes and then washed four times with water. Each well of cells was then stained with 200 μl of 0.4% (w/v) SRB in 1% acetic acid for 20 minutes before washing four times with 1% acetic acid. Plates were then dried for 2 h at room temperature. The dye from the stained cells was solubilized by the addition of 100 μl of 10 mM Tris Base into each well. Plates were gently shaken and left at room temperature for 30 minutes before measuring the optical density at 564 nm on a Microquant microtiter plate reader.

[1] = biological target: T1, Mammalian DNA-PK, isolated from Hela cell nuclear extract (Homo sapiens, UniProt P78527); assay: DNA-PK inhibition assay (33P-ATP, filter binding); format: biochemical
T1 construct: Mammalian DNA-PK, isolated from Hela cell nuclear extract; endogenous in cells; host or cells: HeLa cell nuclear extract (purified per Gell and Jackson 1999)
How it was run: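 DNA-PK from HeLa nuclear extract preincubated with compound 10 min at 30 °C, then started with 50 μM Na-ATP final, ^33P-γATP and 30mer dsDNA (10 ng/μl), run 45 min at 30 °C.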

PI 3-kinase (p110α/p85α) [2] = assay: PI 3-kinase inhibition assay; format: biochemical; conditions: selectivity ratio from the IC50s for PI 3-kinase and DNA-PK
Excerpt: (§1) In order to assess the inhibitory action of the compounds against PI 3-kinase in vitro, the following assay was used to determine IC50 values.
(§2) Baculoviral recombinant GST-fused PI 3-kinase (p110α/p85α) was purified from Sf9 insect cells using GSH-sepharose affinity chromatography as described (Wymann, M. T et al., (1996) Wortmannin inactivates phosphoinositide 3-kinase by covalent modification of Lys-802, a residue involved in the phosphate transfer reaction. Mol. Cell Biol. 16:1722-1733). PI 3-kinase (1 μl) was diluted in reaction buffer (89 μl of 50 mM Hepes pH 7.5, 150 mM NaCl, 0.1 mM Sodium Orthovanadate, containing 20 μg of phosphatidylinositol) and varying concentrations of inhibitor compound added. […] Reactions were incubated for a further 20 minutes at 37° C., before quenching with the addition of 400 μl of chloroform/methanol (1:1). Reactions were acidified by the addition of 200 μl of 1M HCl, before separation of the organic and aqueous phases by centrifugation at 10,000 g for 30 seconds. The organic phase was transferred to a fresh tube and washed twice with 150 μl of 1M hydrochloric acid/methanol (1:1), discarding the aqueous phase. The washed reaction product was then placed in a white 96-well plate with 100 μl of scintillation fluid and transferred to a TopCount NXT for scintillation counting. Counts per minute, following a one minute counting time, were recorded for each reaction. The inhibition of PI 3-kinase activity by compounds was calculated as described above for the DNA-PK assay.
(§3) The selectivity was determined by the following equation: […]

PI 3-kinase (p110α/p85α) [3] = biological target: T2, PI 3-kinase (p110α/p85α) (UniProt P32871); assay: PI 3-kinase inhibition assay; format: biochemical; conditions: GST-fused p110α/p85α
T2 construct: other: GST-fused p110α/p85α
Excerpt: as §1, §2, §3

[4] = IC50 of less than about 1 μM and/or % inhibition of more than about 50 at 1 μM, read-out: DNA-PK inhibition IC50 (particular efficacy)
[5] = concentration at which 50% of the enzyme activity is inhibited, read-out: DNA-PK Inhibition IC50

For O=c1cc(N2CCOCC2)oc2c3c(ccc12)CCCC3 [Compound 297, 7,8,9,10-tetrahydro-benzo[h]-2-(morpholin-4-yl)-chromen-4-one], the “Enhancement Ratio (ER)” value (HeLa cells) was 2.12, the melting point was 220 to 222 °C and the pIC50 [1, 4] was > 6.00. The pIC50 [1, 5] was 6.30, the “Δ(DNA-PK/PI 3-K)” value (PI 3-kinase (p110α/p85α) [2]) was 36 and the pIC50 (PI 3-kinase (p110α/p85α) [3]) was 4.74.

For CC1CN(c2cc(=O)c3ccc4ccccc4c3o2)CCO1 (stereo not drawn) [Compound 317, 2-(2-Methyl-morpholin-4-yl)-benzo[h]chromen-4-one], the “Enhancement Ratio (ER)” value (HeLa cells) was 3.62, the melting point was 181 to 183 °C and the pIC50 [1, 4] was > 6.00. For the same compound, the pIC50 [1, 5] was 6.52, the “Δ(DNA-PK/PI 3-K)” value (PI 3-kinase (p110α/p85α) [2]) was 8 and the pIC50 (PI 3-kinase (p110α/p85α) [3]) was 5.60.

With O=C1c2ccccc2C(=O)N1CCCOc1ccc2c(=O)cc(N3CCOCC3)oc2c1 [Compound 422, N-[3-(2-(Morpholin-4-yl)-4-oxo-4H-chromen-7-yloxy)-propyl]-phthalimide] the “Enhancement Ratio (ER)” value (HeLa cells) was 1.68, the melting point was 210 to 211 °C and the pIC50 [1, 4] was > 6.00. For the same compound, the pIC50 [1, 5] was 6.30, the “Δ(DNA-PK/PI 3-K)” value (PI 3-kinase (p110α/p85α) [2]) was 12 and the pIC50 (PI 3-kinase (p110α/p85α) [3]) was 5.22.

Source: US7674823B2, “DNA-PK inhibitors” (Cancer Research Technology Limited, priority 2001, dated 2010)
